In US20260042755A1, “GPR6 INVERSE AGONISTS” (MapLight Therapeutics, Inc., priority 2022, published 2026):

Columns and labels:
GPR6 = biological target: T1, GPR6 (Homo sapiens, UniProt P46095); assay: GPR6 antagonist functional cAMP assay (LANCE Ultra cAMP TR-FRET, CHO cells stably expressing GPR6); assay type: cell-based
T1 construct: expressed in transfected cells; host or cells: CHO cells
How it was run: (§1)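 Compounds, at 0.1% final DMSO, acted on the cells for 45 minutes at 37 °C in the presence of the phosphodiesterase inhibitor Ro 20-1724 (150 μM). After lysis and detection, plates were shaken 1 h at room temperature and emission at 665 nm was recorded. Normalized data gave IC50 values.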

GPR3 = biological target: T2, GPR3 (Homo sapiens, UniProt P46089); assay: GPR3 antagonist functional cAMP assay (LANCE Ultra cAMP TR-FRET, CHO cells stably expressing GPR3); assay type: cell-based
T2 construct: expressed in transfected cells; host or cells: CHO cells
How it was run: as §1

[1] = CHO cells stably expressing GPR6, cAMP assay (Example 24)
[2] = CHO cells stably expressing GPR3, cAMP assay (Example 24)
[3] = CHO cells stably expressing GPR6, cAMP assay
[4] = CHO cells stably expressing GPR3, cAMP assay

T2 sequence (P46089 whole entry, species assumed): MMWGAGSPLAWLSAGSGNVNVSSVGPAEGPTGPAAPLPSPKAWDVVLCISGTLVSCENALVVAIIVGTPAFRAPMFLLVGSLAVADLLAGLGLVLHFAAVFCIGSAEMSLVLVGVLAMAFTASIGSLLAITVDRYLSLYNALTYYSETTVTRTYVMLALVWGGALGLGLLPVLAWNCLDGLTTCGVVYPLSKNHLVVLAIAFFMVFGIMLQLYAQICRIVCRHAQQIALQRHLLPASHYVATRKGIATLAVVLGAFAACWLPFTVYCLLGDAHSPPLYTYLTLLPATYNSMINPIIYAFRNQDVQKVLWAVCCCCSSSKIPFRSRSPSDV
T1 sequence (P46095 whole entry): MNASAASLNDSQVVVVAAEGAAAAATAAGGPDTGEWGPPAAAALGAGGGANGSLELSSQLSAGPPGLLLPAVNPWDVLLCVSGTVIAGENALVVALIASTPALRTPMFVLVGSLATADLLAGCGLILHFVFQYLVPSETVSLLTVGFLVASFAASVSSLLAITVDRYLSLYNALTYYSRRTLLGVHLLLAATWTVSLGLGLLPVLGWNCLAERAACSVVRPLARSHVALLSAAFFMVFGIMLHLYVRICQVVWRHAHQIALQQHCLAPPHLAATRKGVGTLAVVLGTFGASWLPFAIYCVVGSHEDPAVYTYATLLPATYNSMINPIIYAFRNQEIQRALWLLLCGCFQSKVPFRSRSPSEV

Row | Structure (SMILES) | IC50 (GPR6; [1]) [nM] | IC50 (GPR3; [2]) [nM] | IC50 (GPR6; [3]) [nM] | IC50 (GPR3; [4]) [nM]
1 | CCn1cc(-c2nc3c(nc2N2CCC(Oc4ccc(F)cc4F)CC2)CCN(C(=O)C2CC(F)(F)CN2)C3)cn1 (stereo not drawn) [Compound 481, (2-(4-(2,4-difluorophenoxy)piperidin-1-yl)-3-(1-ethyl-1H-pyrazol-4-yl)-7,8-dihydropyrido[3,4-b]pyrazin-6(5H)-yl)(4,4-difluoropyrrolidin-2-yl)methanone] | 100 to 1000 | 1000 to 30000 | – | –
2 | CN1CC(c2cc3nc(N4CCC(Oc5ccc(F)cc5F)CC4)c(-c4cnn(C)c4)nc3cn2)OC1=O (stereo not drawn) [Compound 482, 5-(2-(4-(2,4-difluorophenoxy)piperidin-1-yl)-3-(1-methyl-1H-pyrazol-4-yl)pyrido[3,4-b]pyrazin-7-yl)-3-methyloxazolidin-2-one] | 100 to 1000 | 1000 to 30000 | – | –
3 | CCn1cc(-c2nc3c(nc2N2CCC(Oc4ccc(F)cc4F)CC2)CCN(C(=O)C2CC(F)(F)CN2C)C3)cn1 (stereo not drawn) [Compound 483, (4,4-difluoro-1-methylpyrrolidin-2-yl)(2-(4-(2,4-difluorophenoxy)piperidin-1-yl)-3-(1-ethyl-1H-pyrazol-4-yl)-7,8-dihydropyrido[3,4-b]pyrazin-6(5H)-yl)methanone] | 100 to 1000 | 1000 to 30000 | – | –
4 | CCn1cc(-c2nc3c(nc2N2CCC(Oc4ccc(F)cc4F)CC2)CCN(C(=O)C(O)CO)C3)cn1 (stereo not drawn) [Compound 484, 1-{2-[4-(2,4-difluorophenoxy)piperidin-1-yl]-3-(1-ethyl-1H-pyrazol-4-yl)-5H,6H,7H,8H-pyrido[3,4-b]pyrazin-6-yl}-2,3-dihydroxypropan-1-one] | 100 to 1000 | 1000 to 30000 | – | –
5 | CCn1cc(-c2nc3c(nc2N2CCC(Oc4ccc(F)cc4F)CC2)CCN(S(C)(=N)=O)C3)cn1 (stereo not drawn) [Compound 485, 2-(4-(2,4-difluorophenoxy)piperidin-1-yl)-3-(1-ethyl-1H-pyrazol-4-yl)-6-(S-methylsulfonimidoyl)-5,6,7,8-tetrahydropyrido[3,4-b]pyrazine] | 100 to 1000 | 1000 to 30000 | – | –
6 | Cn1cc(-c2nc3c(nc2N2CCC(Oc4ccc(F)cc4F)CC2)CC2COC(=O)N2C3)cn1 (stereo not drawn) [Compound 486, 2-(4-(2,4-difluorophenoxy)piperidin-1-yl)-3-(1-methyl-1H-pyrazol-4-yl)-9a,10-dihydro-5H-oxazolo[3′,4′:1,6]pyrido[3,4-b]pyrazin-7(9H)-one] | 100 to 1000 | 1000 to 30000 | – | –
7 | Cc1nccc2nc(N3CCC(Oc4ccc(F)cc4F)CC3)c(-c3cnn(C)c3)nc12 [Compound 487, 4-(2,4-difluorophenoxy)-1-[5-methyl-3-(1-methyl-1H-pyrazol-4-yl)pyrido[3,4-b]pyrazin-2-yl]piperidine] | < 100 | 1000 to 30000 | – | –
8 | Cn1cc(-c2nc3c(nc2N2CCC(Oc4ccc(F)cc4F)CC2)CC2COCC(=O)N2C3)cn1 (stereo not drawn) [Compound 488, 6-[4-(2,4-difluorophenoxy)piperidin-1-yl]-5-(1-methyl-1H-pyrazol-4-yl)-12-oxa-1,4,7-triazatricyclo[8.4.0.0^3,8]tet radeca-3(8),4,6-trien-14-one] | 100 to 1000 | 1000 to 30000 | – | –
9 | CC(=O)N1CCc2nc(N3CCC(Oc4ccc(F)cc4F)CC3)c(C3CC3CO)nc2C1 (stereo not drawn) [Compound 489, 1-(2-(4-(2,4-difluorophenoxy)piperidin-1-yl)-3-(2-(hydroxymethyl)cyclopropyl)-7,8-dihydropyrido[3,4-b]pyrazin-6(5H)-yl)ethan-1-one] | – | – | 100 to 1000 | 1000 to 30000
10 | CC(=O)N1Cc2nc(-c3cnn(C)c3)c(N3CCC(Oc4ccc(F)cc4F)CC3)nc2CC1CO (stereo not drawn) [Compound 490, 1-{2-[4-(2,4-difluorophenoxy)piperidin-1-yl]-7-(hydroxymethyl)-3-(1-methyl-1H-pyrazol-4-yl)-5H,6H,7H,8H-pyrido[3,4-b]pyrazin-6-yl}ethan-1-one] | – | – | 100 to 1000 | 1000 to 30000
11 | CCn1cc(-c2nc3c(nc2N2CCC(Oc4ccc(F)cc4F)CC2)CCN(C(=O)C2COCCN2)C3)cn1 (stereo not drawn) [Compound 491, 3-{2-[4-(2,4-difluorophenoxy)piperidin-1-yl]-3-(1-ethyl-1H-pyrazol-4-yl)-5H,6H,7H,8H-pyrido[3,4-b]pyrazine-6-carbonyl}morpholine] | – | – | < 100 | 1000 to 30000
12 | CCn1cc(-c2nc3c(nc2N2CCC(Oc4ccc(F)cc4F)CC2)CCN(C(=O)C2COCCN2C)C3)cn1 (stereo not drawn) [Compound 492, 3-{2-[4-(2,4-difluorophenoxy)piperidin-1-yl]-3-(1-ethyl-1H-pyrazol-4-yl)-5H,6H,7H,8H-pyrido[3,4-b]pyrazine-6-carbonyl}-4-methylmorpholine] | – | – | 100 to 1000 | 1000 to 30000
13 | CCc1cncc(-c2nc3c(nc2N2CCC(Oc4ccc(F)cc4F)CC2)CCN(C(C)=O)C3)n1 [Compound 493, 1-{2-[4-(2,4-difluorophenoxy)piperidin-1-yl]-3-(6-ethylpyrazin-2-yl)-5H,6H,7H,8H-pyrido[3,4-b]pyrazin-6-yl}ethan-1-one] | – | – | 1000 to 30000 | 1000 to 30000
14 | CC(=O)N1CCc2nc(N3CCC(Oc4ccc(F)cc4F)CC3)c(/C=C3/CCOC3)nc2C1 [Compound 494, 1-{2-[4-(2,4-difluorophenoxy)piperidin-1-yl]-3-{[(3Z)-oxolan-3-ylidene]methyl}-5H,6H,7H,8H-pyrido[3,4-b]pyrazin-6-yl}ethan-1-one] | – | – | 100 to 1000 | 1000 to 30000
15 | CC(=O)OC1CCN(c2nc3c(nc2-c2cnn(C)c2)CN(Cc2ccccc2)CC3)C1 (stereo not drawn) [Compound 495, 1-[6-benzyl-3-(1-methyl-4-pyrazolyl)-5,6,7,8-tetrahydro-1,4,6-triaza-2-naphthyl]-3-pyrrolidinyl acetate] | – | – | 1000 to 30000 | ≥ 30000
16 | CC(=O)N1CCc2nc(N3CCC(Oc4ccc(F)cc4F)CC3)c(C3CCN(CC(F)(F)F)CC3)nc2C1 [Compound 496, 1-{2-[4-(2,4-difluorophenoxy)-1-piperidyl]-3-[1-(2,2,2-trifluoroethyl)-4-piperidyl]-5,6,7,8-tetrahydro-1,4,6-triaza-6-naphthyl}-1-ethanone] | – | – | 1000 to 30000 | 1000 to 30000
17 | CC(=O)N1CCc2nc(N3CCC(Oc4ccc(F)cc4C#N)CC3)c(-c3cnn(C)c3)nc2C1 [Compound 497, 2-{1-[6-acetyl-3-(1-methyl-4-pyrazolyl)-5,6,7,8-tetrahydro-1,4,6-triaza-2-naphthyl]-4-piperidyloxy}-5-fluorobenzonitrile] | – | – | 100 to 1000 | 1000 to 30000
18 | COc1ccc(OC2CCN(c3nc4c(nc3-c3cnn(C)c3)CN(C(C)=O)CC4)CC2)cn1 [Compound 498, 1-{2-[4-(6-methoxy-3-pyridyloxy)-1-piperidyl]-3-(1-methyl-4-pyrazolyl)-5,6,7,8-tetrahydro-1,4,6-triaza-6-naphthyl}-1-ethanone] | – | – | 1000 to 30000 | 1000 to 30000
19 | CC(=O)N1CCc2nc(N3CCC(Oc4ccccc4C#N)CC3)c(-c3cnn(C)c3)nc2C1 [Compound 499, o-{1-[6-acetyl-3-(1-methyl-4-pyrazolyl)-5,6,7,8-tetrahydro-1,4,6-triaza-2-naphthyl]-4-piperidyloxy} benzonitrile] | – | – | 100 to 1000 | ≥ 30000
20 | CC(=O)N1CCc2nc(N3CCC(Oc4ccc(C#N)cc4F)CC3)c(-c3cnn(C)c3)nc2C1 [Compound 500, 4-{1-[6-acetyl-3-(1-methyl-4-pyrazolyl)-5,6,7,8-tetrahydro-1,4,6-triaza-2-naphthyl]-4-piperidyloxy}-3-fluorobenzonitrile] | – | – | 1000 to 30000 | 1000 to 30000
21 | CC(=O)N1CCc2nc(N3CCC(Oc4ccc(C(F)(F)F)cc4F)CC3)c(-c3cnn(C)c3)nc2C1 [Compound 501, 1-(2-{4-[2-fluoro-4-(trifluoromethyl)phenoxy]-1-piperidyl}-3-(1-methyl-4-pyrazolyl)-5,6,7,8-tetrahydro-1,4,6-triaza-6-naphthyl)-1-ethanone] | – | – | 100 to 1000 | 100 to 1000
22 | COc1ccc(OC2CCN(c3nc4c(nc3-c3cnn(C)c3)CN(C(C)=O)CC4)CC2)cc1F [Compound 502, 1-{2-[4-(3-fluoro-4-methoxyphenoxy)-1-piperidyl]-3-(1-methyl-4-pyrazolyl)-5,6,7,8-tetrahydro-1,4,6-triaza-6-naphthyl}-1-ethanone] | – | – | 100 to 1000 | 1000 to 30000
23 | COc1cc(F)c(OC2CCN(c3nc4c(nc3-c3cnn(C)c3)CN(C(C)=O)CC4)CC2)cc1Cl [Compound 503, 1-{2-[4-(5-chloro-2-fluoro-4-methoxyphenoxy)-1-piperidyl]-3-(1-methyl-4-pyrazolyl)-5,6,7,8-tetrahydro-1,4,6-triaza-6-naphthyl}-1-ethanone] | – | – | 1000 to 30000 | 1000 to 30000
24 | CCOc1ccc(OC2CCN(c3nc4c(nc3-c3cnn(C)c3)CN(C(C)=O)CC4)CC2)c(F)c1 [Compound 504, 1-{2-[4-(4-ethoxy-2-fluorophenoxy)-1-piperidyl]-3-(1-methyl-4-pyrazolyl)-5,6,7,8-tetrahydro-1,4,6-triaza-6-naphthyl}-1-ethanone] | – | – | 100 to 1000 | 1000 to 30000
25 | CC(=O)N1CCc2nc(N3CCN(Cc4cc(F)ccc4F)CC3)c(-c3cnn(C)c3)nc2C1 [Compound 505, 1-(2-{4-[(2,5-difluorophenyl)methyl]-1-piperazinyl}-3-(1-methyl-4-pyrazolyl)-5,6,7,8-tetrahydro-1,4,6-triaza-6-naphthyl)-1-ethanone] | – | – | 100 to 1000 | 1000 to 30000
26 | CC(=O)N1CCc2nc(N3CCN(Cc4cc(F)ccc4Cl)CC3)c(-c3cnn(C)c3)nc2C1 [Compound 506, 1-(2-{4-[(2-chloro-5-fluorophenyl)methyl]-1-piperazinyl}-3-(1-methyl-4-pyrazolyl)-5,6,7,8-tetrahydro-1,4,6-triaza-6-naphthyl)-1-ethanone] | – | – | 100 to 1000 | 1000 to 30000
27 | CC(=O)N1CCc2nc(N3CCN(Cc4ccccc4Cl)CC3)c(-c3cnn(C)c3)nc2C1 [Compound 507, 1-(2-{4-[(o-chlorophenyl)methyl]-1-piperazinyl}-3-(1-methyl-4-pyrazolyl)-5,6,7,8-tetrahydro-1,4,6-triaza-6-naphthyl)-1-ethanone] | – | – | 100 to 1000 | 1000 to 30000
